Test results taken from patent US10215755B2, “Method of diagnosing and treating Epstein Barr virus-based myalgic encephalomyelitis chronic fatigue syndrome patients” (CFS, LLC, priority 2012, dated 2019).

How the values were obtained:
[1] = target: EBV thymidine kinase (Epstein-Barr virus, UniProt P03177); settings: after gastrointestinal absorption; cited from earlier work
[2] = test system: EBV subset ME/CFS patients; test: Energy Index Point Score (EIPS) of six EBV subset ME/CFS patients treated with valacyclovir for ≥12 months; format: in vivo, human; settings: for EIPS final: valacyclovir ≥12 months
Experimental: As depicted in Table 1, the Energy Index (EI) point score (Copyright, Lerner A M and Deeter R G, 1999), is a simple and reliable metric that can be used to easily evaluate the functional capacity of the CFS patient at each patient-physician visit. The EI is measured on a scale of 1-10. Validation of the EI was done using two methods: 1.) 20 CFS patients and 22 healthy adults, matched for sex, age, place, and time; EI, CFS=3.6; EI, healthy adults=9.9, p=<0.0001; and 2.) 55 CFS patients evaluated at the same time by the EI and fatigue severity score, correlation 0.67, p=0.0066. Improvement to disappearance of CFS symptoms correlates with an increasing EI.
The validated energy index point score generally can be calculated for each CFS patient every 3 months at physician visits. A CFS patient has an EI≤5. A CFS patient with an […] is bedridden; a CFS diagnosis is no longer present at an EI>5. The EI effect size is 0.25, a medium effect size is 0.5. A large effect size is >0.8.
6 ME/CFS patients were identified as Group A EBV subset (five patients), and one patient (group B) had co-infection with Borrelia burgdorferi. […] A ME/CFS treatment decision tree that developed from the systematic review of the 142 ME/CFS patients is provided as FIG. 1.
Demographics. ME/CFS patients (Table 2) the six ME/CFS patients (5 women) were selected from 142 ME/CFS of the 2001-2007 systematic review. They were 37-59 years old. Serum samples were taken at intervals Mar. 5, 2002-Nov. 14, 2003. There were 7 to 10 sera from each patient. Five of the 6 ME/CFS patients were Group A (no co-infections), and one patient had co-infection with Borrelia burgdorferi (patient no. 2). Five of the 6 patients were HCMV IgG serum antibody negative. Initial EIPS values were 3.5-5.0, meaning that patients could be out of bed only 3 to 4 hours a day, and required daily naps in bed to complete each day. One ME/CFS patient was able to struggle to complete a sedentary working day (Table 2, patient no. 6). […] They struggled at baseline to maintain their sedentary working day, required a daytime nap, and could no longer do any exercise without marked syncope and worsening fatigue. One year later the final EIPS values were 7-8, for the 5 group A ME/CFS patients, meaning that patients could now live normal lives. The single group B ME/CFS patient's final EIPS value increased from a baseline of 3.5 to 5, but this […] still met international criteria diagnosis of ME/CFS. The EIPS is a validated (FSS-9 item scale with high degree of internal consistency measured by Cronbach's alpha) is a Functional Activity Appraisal: energy Index Score Healthcare worker Appraisal.

[3] = test system: group A ME/CFS patients; test: Follow-up of 106 group A ME/CFS patients 2001-2007 under subset directed antiviral treatment; format: in vivo, human; settings: 79 of 106 group A patients, valacyclovir (EBV subset) or valganciclovir (HCMV, HHV6 subsets), 2001-2007, p<0.0001
Source text: A ME/CFS diagnostic panel was created utilizing initial Fukuda/Carruthers criteria and a systematic review of 142 ME/CFS patients. Two groups of ME/CFS patients were found. Group A patients had elevated serum IgG antibody titers to the herpes viruses Epstein-Barr virus (EBV), cytomegalovirus (HCMV) and Human Herpes virus 6 (HHV6) in single or multiple virus infection, but no other co-infections. Group B patients had similar elevated herpes virus antibody titers, plus serologic evidence of co-infections, tick-borne (“Borrelia burgdorferi”, “Anaplasma phagocytophilia”, “Babesia microti”); “Mycoplasma pneumoniae”; or adult rheumatoid fever. One hundred and six group A ME/CFS patients were followed from 2001-2007, and treated with subset directed valacyclovir EBV subset or valganciclovir (HCMV, HHV6 subsets). The data included over 7000 patient visits and 35,000 data entries.

[4] = test system: early herpes virus proteins; settings: cited from earlier work
[5] = target: HV6 DNA polymerases (Human herpesvirus 6A, UniProt P28857); settings: cited from earlier work
[6] = target: HCMV DNA polymerases (Human cytomegalovirus, UniProt P08546); settings: cited from earlier work
HCMV DNA polymerases, sequence (P08546 whole entry): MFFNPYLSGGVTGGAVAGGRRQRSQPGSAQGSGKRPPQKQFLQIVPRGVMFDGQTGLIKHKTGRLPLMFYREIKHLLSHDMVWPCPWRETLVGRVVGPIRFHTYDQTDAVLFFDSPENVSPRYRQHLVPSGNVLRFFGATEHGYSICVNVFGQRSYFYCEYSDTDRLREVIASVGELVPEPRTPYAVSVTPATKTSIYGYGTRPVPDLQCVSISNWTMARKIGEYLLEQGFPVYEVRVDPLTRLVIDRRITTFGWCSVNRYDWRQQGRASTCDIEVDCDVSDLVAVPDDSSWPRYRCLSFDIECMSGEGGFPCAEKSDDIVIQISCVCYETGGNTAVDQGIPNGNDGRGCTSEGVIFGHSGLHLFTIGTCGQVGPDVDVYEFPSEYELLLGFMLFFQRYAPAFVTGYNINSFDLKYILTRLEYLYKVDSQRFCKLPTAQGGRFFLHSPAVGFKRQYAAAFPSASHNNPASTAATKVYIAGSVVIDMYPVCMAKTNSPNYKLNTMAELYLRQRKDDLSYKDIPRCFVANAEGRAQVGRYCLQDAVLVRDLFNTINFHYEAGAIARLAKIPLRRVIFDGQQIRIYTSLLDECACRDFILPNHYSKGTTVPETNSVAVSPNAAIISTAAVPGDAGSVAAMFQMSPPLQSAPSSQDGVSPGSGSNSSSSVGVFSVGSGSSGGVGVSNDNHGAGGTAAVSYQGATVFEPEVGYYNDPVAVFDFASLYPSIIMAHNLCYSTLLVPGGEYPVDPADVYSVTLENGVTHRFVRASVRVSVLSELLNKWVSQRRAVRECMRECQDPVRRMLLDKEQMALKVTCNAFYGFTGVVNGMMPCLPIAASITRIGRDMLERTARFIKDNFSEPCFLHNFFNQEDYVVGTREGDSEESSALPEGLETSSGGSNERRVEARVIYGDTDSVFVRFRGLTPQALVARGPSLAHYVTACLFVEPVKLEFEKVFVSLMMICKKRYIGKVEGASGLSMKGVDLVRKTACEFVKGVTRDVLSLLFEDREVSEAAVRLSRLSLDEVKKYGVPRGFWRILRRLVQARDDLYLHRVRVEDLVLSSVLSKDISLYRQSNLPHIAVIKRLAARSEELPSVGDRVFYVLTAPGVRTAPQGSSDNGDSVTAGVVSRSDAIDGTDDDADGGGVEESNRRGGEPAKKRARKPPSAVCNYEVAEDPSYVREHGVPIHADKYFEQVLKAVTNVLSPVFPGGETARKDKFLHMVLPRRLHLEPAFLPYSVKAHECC

HV6 DNA polymerases, sequence (P28857 whole entry): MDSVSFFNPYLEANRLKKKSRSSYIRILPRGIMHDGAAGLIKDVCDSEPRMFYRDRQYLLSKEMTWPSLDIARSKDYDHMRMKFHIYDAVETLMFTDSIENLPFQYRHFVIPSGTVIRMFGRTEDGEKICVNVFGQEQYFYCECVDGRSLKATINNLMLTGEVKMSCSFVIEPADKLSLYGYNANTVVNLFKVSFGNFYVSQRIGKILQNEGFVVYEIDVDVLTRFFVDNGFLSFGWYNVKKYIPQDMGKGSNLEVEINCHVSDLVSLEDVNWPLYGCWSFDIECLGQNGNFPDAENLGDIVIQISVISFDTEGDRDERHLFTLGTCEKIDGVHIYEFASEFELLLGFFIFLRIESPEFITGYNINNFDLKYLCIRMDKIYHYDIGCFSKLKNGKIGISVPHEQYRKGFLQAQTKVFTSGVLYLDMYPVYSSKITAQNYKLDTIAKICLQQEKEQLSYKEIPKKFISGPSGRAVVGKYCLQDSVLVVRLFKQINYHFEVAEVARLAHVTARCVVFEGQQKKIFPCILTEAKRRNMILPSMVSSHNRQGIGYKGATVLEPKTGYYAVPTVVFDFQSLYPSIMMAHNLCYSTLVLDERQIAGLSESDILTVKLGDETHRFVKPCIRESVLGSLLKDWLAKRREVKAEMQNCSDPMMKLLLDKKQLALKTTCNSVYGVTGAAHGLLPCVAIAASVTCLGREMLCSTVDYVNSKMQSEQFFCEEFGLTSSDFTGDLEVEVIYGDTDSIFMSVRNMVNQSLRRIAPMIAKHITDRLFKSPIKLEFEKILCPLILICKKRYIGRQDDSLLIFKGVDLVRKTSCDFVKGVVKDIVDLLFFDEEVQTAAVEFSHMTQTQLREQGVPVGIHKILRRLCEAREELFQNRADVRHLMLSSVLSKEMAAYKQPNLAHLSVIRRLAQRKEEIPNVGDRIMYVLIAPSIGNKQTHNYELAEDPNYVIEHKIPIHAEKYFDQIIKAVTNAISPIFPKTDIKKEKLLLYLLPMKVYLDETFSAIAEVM
EBV thymidine kinase, sequence (P03177 whole entry): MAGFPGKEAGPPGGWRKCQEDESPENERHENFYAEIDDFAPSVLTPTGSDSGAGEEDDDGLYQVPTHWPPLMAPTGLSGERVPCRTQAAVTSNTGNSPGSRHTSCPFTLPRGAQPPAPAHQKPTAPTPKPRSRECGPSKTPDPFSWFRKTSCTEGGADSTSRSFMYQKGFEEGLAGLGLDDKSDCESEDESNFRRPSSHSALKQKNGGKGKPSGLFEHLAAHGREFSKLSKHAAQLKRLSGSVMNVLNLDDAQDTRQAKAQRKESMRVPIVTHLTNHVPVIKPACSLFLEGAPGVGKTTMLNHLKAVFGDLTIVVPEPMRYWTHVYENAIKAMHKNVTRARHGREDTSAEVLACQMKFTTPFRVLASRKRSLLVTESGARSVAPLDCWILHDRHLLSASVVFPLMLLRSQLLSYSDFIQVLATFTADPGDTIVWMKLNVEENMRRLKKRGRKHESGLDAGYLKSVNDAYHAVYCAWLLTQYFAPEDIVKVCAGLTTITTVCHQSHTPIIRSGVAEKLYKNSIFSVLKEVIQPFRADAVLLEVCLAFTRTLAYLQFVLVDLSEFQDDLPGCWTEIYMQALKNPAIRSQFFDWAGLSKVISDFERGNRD

Structure (SMILES)	greater affinity for EBV thymidine kinase than for the host cellular enzyme [1]	EIPS final ([2]; patient 1, Group A, no co-infection, EIPS 5 baseline)	EIPS final ([2]; patient 2, Group B, co-infection Lyme disease, EIPS 3.5 baseline)	EIPS final ([2]; patient 3, Group A, no co-infection, EIPS 5 baseline)	EIPS final ([2]; patient 4, Group A, no co-infection, EIPS 4 baseline)	EIPS final ([2]; patient 6, Group A, no co-infections, EIPS 6 baseline)	final EIPS value ([2]; single group B ME/CFS patient, baseline 3.5, still met criteria of ME/CFS)	final EIPS values ([2]; the 5 group A ME/CFS patients, one year later, initial EIPS 3.5-5.0 (one patient 6))	group A patients recovered to resume normal life [3]	inhibition of early herpes virus proteins [4]	inhibition of HV6 DNA polymerases [5]	inhibition of HCMV DNA polymerases [6]
CC(C)[C@H](N)C(=O)OCCOCn1cnc2c(=O)[nH]c(N)nc21 [valacyclovir]	200 ×	EIPS 8	EIPS 5	EIPS 8	EIPS 7	EIPS 7	5	7-8	74.5%	do not inhibit	–	–
CC(C)[C@H](N)C(=O)OCC(CO)OCn1cnc2c(=O)nc(N)[nH]c21 (some centres unmarked) [valganciclovir]	–	–	–	–	–	–	–	–	74.5%	do not inhibit	inhibits	inhibits
